Reference: patent US20030134892A1, “Compositions for treatment of head and neck cancers, and methods of making and using the same” (priority 2001, published 2003)

How the values were obtained:
[1] = tested on: human head and neck cancer cell line; assay: Experiment 2: human tumor model with radiation, orthotopic tumor in the neck of a nude mouse; assay type: in vivo; details: injected intratumorally three week post cell injection, followed by fractionated radiation (RT) 2 gy/day for 4 days
Protocol: In this study, the model is also a human head and neck cancer cell line but the tumor was grown orthotopically in the neck of a nude mouse. Three week post cell injection the tumors were injected intratumorally with paclimer and then followed by fractionated radiation, 2 gy/day for 4 days.

JHU012 cells = assay: Experiment 1: human orthotopic squamous cell head and neck cancer model, tumor size after treatment; assay type: in vivo, Nu/nu mice; details: 45 days following treatment
Protocol: The efficacy of paclitaxel microsphere formulations in human orthotopic squamous cell head and neck cancer models were tested below.
Nu/nu mice were injected with 1×10^7 JHU012 cells into the anterior floor of mouth near the genial tubercle of the mandible. 12 days following cell injection, the tumors were approximately 80 mm^3. […] 45 days following treatment, the animals were sacrificed and tumors measured again.

Question: For `CC(=O)O[C@H]1C(=O)[C@@]2(C)[C@H]([C@H](OC(=O)c3ccccc3)[C@]3(O)C[C@H](OC(=O)[C@H](O)[C@@H](NC(=O)c4ccccc4)c4ccccc4)C(C)=C1C3(C)C)[C@]1(OC(C)=O)CO[C@@H]1C[C@@H]2O` [ptx, paclitaxel], which “Tumor Size” value [1] is on record?
Answer: 102.3 ± 37.0 mm^3

Question: And the “Tumor Size at end of Experiment 1” value (JHU012 cells; 24 mg/kg i.p., tumors approx. 80 mm^3 at treatment)?
Answer: 973.3 ± 91.7 mm^3

Question: For `O=c1[nH]cc(F)c(=O)[nH]1` [5-fu, 5-fluorouracil], which “Tumor Size at end of Experiment 1” value (JHU012 cells; 0.15 mmol/kg/day oral, 4 days) is on record?
Answer: 518.7 ± 96.3 mm^3
